Data on 1 compound can be found in US12534457B2, “Heteroaryl derivative compounds, and uses thereof” (Voronoi Inc., priority 2021, dated 2026).

One assay addresses T1, EGFR (d746-750) (Homo sapiens, UniProt P00533, DEL746-750).
T1 construct: purchased Reaction Biology
Description: EGFR-family mutant enzyme activity (Reaction Biology). In kind it is biochemical.

For the next assay, the target named is T2, EGFR (L792F/L858R) (Homo sapiens, UniProt P00533, L792F/L858R).
T2 construct: purchased Reaction Biology
Described as above. In kind it is biochemical.

The test system of assay [1] is Ba/F3 cells expressing EGFR Del19/C797S (EGFR DC). Description: Proliferation inhibitory activity, Ba/F3 cells expressing EGFR Del19/C797S (CellTiter-Glo). In kind it is cell-based. As to conditions: Mus musculus, BaF3, 72 hours of compound treatment. In short, it runs like this: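 Viability after 72 h of compound exposure was measured by luminescence (CellTiter-Glo) in Ba/F3 lines transduced with mutant EGFR. Final concentrations spanned 0.2 nM–5 μM over 12 threefold steps. Growth relative to untreated control gave GI50 values; each test was run three times.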
On the technique in general: ATP-based viability assays read luminescence as a measure of living cells.

The next assay addresses T3, EGFR (L792F) (Homo sapiens, UniProt P00533, L792F).
T3 construct: purchased Reaction Biology
The assay is described as follows: EGFR-family mutant enzyme activity (Reaction Biology). In kind it is biochemical.

The target of the next assay is T4, EGFR (L718Q) (Homo sapiens, UniProt P00533, L718Q).
T4 construct: purchased Reaction Biology
The assay is described as above. In kind it is biochemical.

Assay [2] deals with Ba/F3 L861Q (EGFR mutation). The assay is described as follows: Proliferation inhibitory activity, Ba/F3 cells expressing EGFR L861Q. In kind it is cell-based. As to conditions: Mus musculus, BaF3, 72 hours, CellTiter-Glo. The procedure: (§1) The following experiments were performed to evaluate the inhibitory activity of the compounds according to the present disclosure on Ba/F3 proliferation expressing EGFR C797S, L861Q, G719A, S768I, L718Q, and/or G724S mutations.
(§2) For Ba/F3 cells, RPMI-1640 containing 10% FBS and 5 ng/ml IL-3 (R&D Systems) was used. Transduced Ba/F3 cells were cultured after adding 1 μg/ml puromycin (Invitrogen) to the same medium.
(§3) At 24 hours before treatment with the compounds, 3000 to 5000 cells were aliquoted into each well of a white clear bottom 96 well plate (Corning). The compounds were diluted in dimethyl sulfoxide (3 times dilution, 12 concentrations in total), and injected in an amount of 1 μl so that the final concentration was 0.2 nM to 5 uM. For measurement of living cells, after 72 hours of compound treatment, the cells were stored at room temperature for 10 min using CellTiter-Glo luminescentcell-viability reagent (Promega), and then luminescence intensity was measured using a reader (SynergyNeo, Biotek). Each test was repeated three times. Result values were calculated as the cell growth rate (%) compared to the control. The graphs were created using GraphPad Prism version 8.3.0 program and the GI50 values were calculated.

The next assay concerns the target T5, EGFR (G719S) (Homo sapiens, UniProt P00533, G719S).
T5 construct: purchased Reaction Biology
The assay is described as follows: EGFR-family mutant enzyme activity (Reaction Biology). In kind it is biochemical.

A further assay addresses T6, EGFR (D761Y) (Homo sapiens, UniProt P00533, D761Y).
T6 construct: purchased Reaction Biology
The description is as above. In kind it is biochemical.

Assay [3] deals with T7, EGFR (d746-750/T790M/C797S) (Homo sapiens, UniProt P00533, C797S/DEL746-750/T790M).
T7 construct: purchased Reaction Biology
The description is as above. In kind it is biochemical.

The subject of assay [4] is Ba/F3 S768I (EGFR mutation). Description: Proliferation inhibitory activity, Ba/F3 cells expressing EGFR S768I. As to conditions: Mus musculus, BaF3, 72 hours, CellTiter-Glo. In kind it is cell-based. The procedure: as §1, §2, §3
Another assay addresses T8, ERBB2/HER2 (Homo sapiens, UniProt P04626).
T8 construct: purchased Reaction Biology
The assay is described as follows: EGFR-family mutant enzyme activity (Reaction Biology). In kind it is biochemical.

For assay [5], the system named is Ba/F3 G719A (EGFR mutation). The assay is described as follows: Proliferation inhibitory activity, Ba/F3 cells expressing EGFR G719A. In kind it is cell-based. The conditions noted are these: Mus musculus, BaF3, 72 hours, CellTiter-Glo. The procedure: as §1, §2, §3
Another assay has as its target T9, ERBB4/HER4 (Homo sapiens, UniProt Q15303).
T9 construct: purchased Reaction Biology
Description: EGFR-family mutant enzyme activity (Reaction Biology). In kind it is biochemical.

The target in another assay is T10, EGFR (L747S) (Homo sapiens, UniProt P00533, L747S).
T10 construct: purchased Reaction Biology
Described as above. In kind it is biochemical.

Assay [6] has as its system Ba/F3 L718Q (EGFR mutation). Description: Proliferation inhibitory activity, Ba/F3 cells expressing EGFR L718Q. In kind it is cell-based. The conditions noted are these: Mus musculus, BaF3, 72 hours, CellTiter-Glo. The protocol:
as §1, §2, §3

The target of the next assay is T11, EGFR (d746-750/C797S) (Homo sapiens, UniProt P00533, C797S/DEL746-750).
T11 construct: purchased Reaction Biology
Description: EGFR-family mutant enzyme activity (Reaction Biology). In kind it is biochemical.

The target of another assay is T12, EGFR (d746-750/C797A) (Homo sapiens, UniProt P00533, C797A/DEL746-750).
T12 construct: purchased Reaction Biology
The assay is described as above. In kind it is biochemical.

In the next assay the target is T13, EGFR (G719D) (Homo sapiens, UniProt P00533, G719D).
T13 construct: purchased Reaction Biology
Described as above. In kind it is biochemical.

The next assay concerns the target T14, EGFR (G719C) (Homo sapiens, UniProt P00533, G719C).
T14 construct: purchased Reaction Biology
Described as above. In kind it is biochemical.

The next assay deals with T15, EGFR (L861Q) (Homo sapiens, UniProt P00533, L861Q).
T15 construct: purchased Reaction Biology
The description is as above. In kind it is biochemical.

The subject of assay [7] is Ba/F3 G724S (EGFR mutation). The assay is described as follows: Proliferation inhibitory activity, Ba/F3 cells expressing EGFR G724S. In kind it is cell-based. As to conditions: Mus musculus, BaF3, 72 hours, CellTiter-Glo. The procedure:
as §1, §2, §3

Structures are written as SMILES.

T13 sequence (P00533 25-1210 G719D): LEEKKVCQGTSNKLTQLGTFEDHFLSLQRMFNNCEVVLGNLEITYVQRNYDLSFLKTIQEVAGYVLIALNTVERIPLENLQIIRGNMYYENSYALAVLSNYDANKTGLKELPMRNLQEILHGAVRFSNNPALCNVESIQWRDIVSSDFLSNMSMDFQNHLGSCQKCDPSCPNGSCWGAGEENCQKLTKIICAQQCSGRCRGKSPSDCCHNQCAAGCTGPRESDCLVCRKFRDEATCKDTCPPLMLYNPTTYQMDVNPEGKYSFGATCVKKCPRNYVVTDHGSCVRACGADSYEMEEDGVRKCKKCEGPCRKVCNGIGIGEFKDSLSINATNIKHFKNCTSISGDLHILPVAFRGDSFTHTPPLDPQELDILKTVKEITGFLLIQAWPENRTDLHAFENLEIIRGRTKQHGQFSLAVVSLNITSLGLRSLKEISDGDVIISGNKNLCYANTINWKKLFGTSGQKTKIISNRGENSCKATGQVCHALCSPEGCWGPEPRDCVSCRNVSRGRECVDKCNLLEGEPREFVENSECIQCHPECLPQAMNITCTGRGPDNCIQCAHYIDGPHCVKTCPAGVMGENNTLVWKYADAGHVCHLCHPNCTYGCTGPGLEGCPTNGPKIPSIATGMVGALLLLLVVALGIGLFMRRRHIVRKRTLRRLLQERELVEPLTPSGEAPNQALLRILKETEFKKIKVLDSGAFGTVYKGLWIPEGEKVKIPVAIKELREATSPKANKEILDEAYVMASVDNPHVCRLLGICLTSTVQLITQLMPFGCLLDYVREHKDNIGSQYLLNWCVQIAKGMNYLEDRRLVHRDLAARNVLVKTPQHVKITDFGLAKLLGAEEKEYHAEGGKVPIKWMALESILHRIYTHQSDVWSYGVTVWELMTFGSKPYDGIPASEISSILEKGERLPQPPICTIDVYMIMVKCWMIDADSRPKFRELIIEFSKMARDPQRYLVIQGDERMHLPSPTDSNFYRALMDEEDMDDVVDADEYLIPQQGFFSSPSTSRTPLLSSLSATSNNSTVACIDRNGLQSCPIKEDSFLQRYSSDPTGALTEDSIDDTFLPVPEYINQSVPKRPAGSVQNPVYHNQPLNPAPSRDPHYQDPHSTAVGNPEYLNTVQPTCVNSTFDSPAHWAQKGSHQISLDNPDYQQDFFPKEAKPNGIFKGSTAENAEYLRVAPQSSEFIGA
T8 sequence (P04626 23-1255): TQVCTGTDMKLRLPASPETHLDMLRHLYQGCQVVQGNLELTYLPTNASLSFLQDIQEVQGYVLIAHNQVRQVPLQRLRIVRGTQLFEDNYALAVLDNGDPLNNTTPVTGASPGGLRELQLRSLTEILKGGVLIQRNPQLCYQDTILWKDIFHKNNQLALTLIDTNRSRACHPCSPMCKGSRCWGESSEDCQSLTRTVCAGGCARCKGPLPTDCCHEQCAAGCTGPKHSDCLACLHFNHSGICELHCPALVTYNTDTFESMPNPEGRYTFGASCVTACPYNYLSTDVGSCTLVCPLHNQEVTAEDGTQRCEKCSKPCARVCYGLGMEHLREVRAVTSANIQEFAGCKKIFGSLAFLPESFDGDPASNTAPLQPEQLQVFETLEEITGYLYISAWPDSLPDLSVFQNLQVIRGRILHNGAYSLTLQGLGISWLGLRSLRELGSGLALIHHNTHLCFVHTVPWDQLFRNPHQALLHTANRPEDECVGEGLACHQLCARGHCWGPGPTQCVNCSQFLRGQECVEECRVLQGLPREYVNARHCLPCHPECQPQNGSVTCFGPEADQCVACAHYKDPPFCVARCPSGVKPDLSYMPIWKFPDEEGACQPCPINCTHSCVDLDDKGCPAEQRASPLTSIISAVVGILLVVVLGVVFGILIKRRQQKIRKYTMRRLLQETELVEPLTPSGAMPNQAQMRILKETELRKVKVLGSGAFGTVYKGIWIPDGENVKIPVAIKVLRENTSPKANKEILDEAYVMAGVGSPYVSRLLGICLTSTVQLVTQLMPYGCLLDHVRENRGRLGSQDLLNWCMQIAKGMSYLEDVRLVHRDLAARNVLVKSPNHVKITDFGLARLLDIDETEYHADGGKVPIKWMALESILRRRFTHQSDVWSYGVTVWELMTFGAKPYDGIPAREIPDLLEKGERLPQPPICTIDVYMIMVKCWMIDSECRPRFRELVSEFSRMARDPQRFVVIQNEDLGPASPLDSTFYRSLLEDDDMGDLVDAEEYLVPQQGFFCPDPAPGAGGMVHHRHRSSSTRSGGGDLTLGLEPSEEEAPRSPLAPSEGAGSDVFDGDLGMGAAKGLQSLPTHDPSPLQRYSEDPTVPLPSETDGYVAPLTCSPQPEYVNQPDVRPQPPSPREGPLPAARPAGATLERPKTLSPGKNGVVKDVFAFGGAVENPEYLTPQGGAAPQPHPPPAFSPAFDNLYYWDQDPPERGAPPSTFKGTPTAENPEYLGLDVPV
T1 sequence (P00533 with tags, fused parts or gaps DEL746-750 limits assumed): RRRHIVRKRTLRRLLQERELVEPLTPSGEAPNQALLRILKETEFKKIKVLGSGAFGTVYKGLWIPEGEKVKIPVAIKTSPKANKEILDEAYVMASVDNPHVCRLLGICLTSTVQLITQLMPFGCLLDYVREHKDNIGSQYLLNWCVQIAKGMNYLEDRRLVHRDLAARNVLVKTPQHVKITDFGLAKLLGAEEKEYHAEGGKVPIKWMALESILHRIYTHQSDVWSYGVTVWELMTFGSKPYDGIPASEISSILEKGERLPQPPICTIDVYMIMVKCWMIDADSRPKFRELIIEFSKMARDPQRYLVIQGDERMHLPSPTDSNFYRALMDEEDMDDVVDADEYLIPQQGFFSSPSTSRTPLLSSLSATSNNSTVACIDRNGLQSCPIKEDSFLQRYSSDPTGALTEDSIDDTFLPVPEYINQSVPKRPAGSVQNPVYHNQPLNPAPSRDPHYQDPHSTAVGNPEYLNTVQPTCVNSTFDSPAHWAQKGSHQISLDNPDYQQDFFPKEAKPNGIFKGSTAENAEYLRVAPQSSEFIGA
T9 sequence (Q15303 26-1308): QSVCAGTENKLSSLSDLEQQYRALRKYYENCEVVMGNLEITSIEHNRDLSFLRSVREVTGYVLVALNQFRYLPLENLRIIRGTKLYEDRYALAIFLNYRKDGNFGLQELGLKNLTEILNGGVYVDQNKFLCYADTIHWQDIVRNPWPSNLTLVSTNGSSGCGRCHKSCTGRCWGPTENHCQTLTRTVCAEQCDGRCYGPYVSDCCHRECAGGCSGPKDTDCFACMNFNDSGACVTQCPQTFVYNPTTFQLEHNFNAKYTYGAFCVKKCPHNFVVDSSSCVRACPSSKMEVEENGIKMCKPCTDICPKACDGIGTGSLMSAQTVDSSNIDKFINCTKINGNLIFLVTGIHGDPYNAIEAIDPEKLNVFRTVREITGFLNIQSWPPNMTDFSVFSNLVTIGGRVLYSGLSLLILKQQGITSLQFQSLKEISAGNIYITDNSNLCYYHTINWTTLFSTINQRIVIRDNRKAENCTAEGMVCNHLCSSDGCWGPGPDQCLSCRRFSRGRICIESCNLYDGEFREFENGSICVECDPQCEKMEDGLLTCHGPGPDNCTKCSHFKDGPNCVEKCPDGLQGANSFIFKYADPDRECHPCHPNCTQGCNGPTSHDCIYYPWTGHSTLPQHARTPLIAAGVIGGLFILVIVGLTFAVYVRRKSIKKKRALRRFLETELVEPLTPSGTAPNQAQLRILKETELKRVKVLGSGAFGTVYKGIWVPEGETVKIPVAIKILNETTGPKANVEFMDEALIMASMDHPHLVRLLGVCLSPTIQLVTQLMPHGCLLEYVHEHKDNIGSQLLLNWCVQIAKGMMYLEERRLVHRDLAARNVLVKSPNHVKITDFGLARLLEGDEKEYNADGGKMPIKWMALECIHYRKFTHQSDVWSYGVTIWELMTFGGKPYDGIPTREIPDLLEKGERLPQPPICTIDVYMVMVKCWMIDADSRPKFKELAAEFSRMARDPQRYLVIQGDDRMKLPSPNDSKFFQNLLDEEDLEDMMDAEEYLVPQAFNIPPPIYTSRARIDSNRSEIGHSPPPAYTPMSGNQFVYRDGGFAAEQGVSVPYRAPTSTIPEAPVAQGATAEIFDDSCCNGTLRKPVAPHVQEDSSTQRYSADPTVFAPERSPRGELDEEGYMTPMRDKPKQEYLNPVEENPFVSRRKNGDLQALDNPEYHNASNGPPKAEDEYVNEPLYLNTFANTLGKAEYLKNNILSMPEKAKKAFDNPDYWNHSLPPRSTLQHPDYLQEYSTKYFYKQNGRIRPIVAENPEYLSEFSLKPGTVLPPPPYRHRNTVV
T11 sequence (P00533 with tags, fused parts or gaps DEL746-750/C797S limits assumed): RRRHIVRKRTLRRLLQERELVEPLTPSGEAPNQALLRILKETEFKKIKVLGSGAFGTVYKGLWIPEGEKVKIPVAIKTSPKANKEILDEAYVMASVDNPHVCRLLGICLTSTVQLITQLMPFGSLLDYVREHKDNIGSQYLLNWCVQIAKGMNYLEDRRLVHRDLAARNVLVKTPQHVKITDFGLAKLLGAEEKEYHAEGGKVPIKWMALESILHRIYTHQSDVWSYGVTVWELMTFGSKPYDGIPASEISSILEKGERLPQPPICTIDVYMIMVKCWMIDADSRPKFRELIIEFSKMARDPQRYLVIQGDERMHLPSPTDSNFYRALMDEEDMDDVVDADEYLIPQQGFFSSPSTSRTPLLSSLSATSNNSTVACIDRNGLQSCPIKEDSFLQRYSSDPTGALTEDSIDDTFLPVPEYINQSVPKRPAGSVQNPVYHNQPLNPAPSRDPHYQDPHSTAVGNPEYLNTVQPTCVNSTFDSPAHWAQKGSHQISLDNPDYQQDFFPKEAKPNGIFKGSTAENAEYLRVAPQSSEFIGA

Take `COc1cc(N2CCC(N3CCN(C)CC3)CC2)ccc1Nc1cc(N2OCC[C@@H]2c2ccc(F)cc2F)ncn1` [Example 34, (R)-6-(3-(2,4-difluorophenyl)isoxazolidin-2-yl)-N-(2-methoxy-4-(4-(4-methylpiperazin-1-yl)piperidin-1-yl)phenyl)pyrimidin-4-amine]: the IC50 (as a rule, the concentration at which inhibition is half-maximal) against EGFR (d746-750) is 8 nM; on EGFR (L792F/L858R), 78.1 nM; at EGFR (L792F), 8.7 nM; against EGFR (L718Q) it was 49.8 nM; against EGFR (G719S), 2.7 nM; against EGFR (D761Y) it was under 0.5 nM. In addition, the IC50 is 60.5 nM in [3]; 5.3 nM at ERBB2/HER2; 41.7 nM against ERBB4/HER4; under 0.5 nM against EGFR (L747S); under 0.5 nM at EGFR (d746-750/C797S); 3.5 nM on EGFR (d746-750/C797A). In addition, the IC50 against EGFR (G719D) was under 0.5 nM; against EGFR (G719C), 0.5 nM; against EGFR (L861Q) it was under 0.5 nM. The GI50 (as a rule, the concentration giving 50% growth inhibition) in assay [1] was under 50 nM; in assay [2] it was 50 to 500 nM; in [4] it was 50 to 500 nM; in assay [5], under 50 nM; in assay [6] it was 50 to 500 nM; in assay [7], under 50 nM.
